This passage reports GI50 and TGI results from PubChem BioAssay (NCI).

Each structure is given as a SMILES string.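 Grown in 96-well plates, cells were treated for 48 hours with each compound at five concentrations. Insufficient inhibition: endpoint recorded as highest concentration tested. GI50: concentration for 50% inhibition of growth. At the TGI there is no net growth.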 Some results are limits rather than exact numbers.

Some test systems named below: OVCAR-5 ovarian; MCF7 breast; RXF 393 renal; NCI-H522 lung; EKVX NSCLC; CAKI-1 renal; OVCAR-8 ovarian; BT-549 breast; UO-31 renal; NCI-H23 lung.
Test in all cases: inhibition of tumour cell growth, NCI panel, 48 h

On to `O=C(/C=C\c1ccc(O)c(O)c1)c1ccccc1O`, for which the GI50 with OVCAR-5 ovarian is 18 µM; in the test with MCF7 breast, 14.6 µM; with RXF 393 renal, 4.21 µM; in the test on NCI-H522 lung, 214 nM; in the test on EKVX NSCLC it was 14.4 µM; in the test on CAKI-1 renal, 4.45 µM. For the same compound, the GI50 with OVCAR-8 ovarian is 14.7 µM; with BT-549 breast, 3.61 µM; in the test with UO-31 renal it was 2.2 µM; with NCI-H23 lung, 12.7 µM. Besides, the TGI in the test on OVCAR-5 ovarian is 40.4 µM; with MCF7 breast, more than 100 µM; in the test on RXF 393 renal, 17.2 µM; in the test on NCI-H522 lung it was 809 nM; in the test with EKVX NSCLC, more than 100 µM; with CAKI-1 renal, 40 µM. For the same compound, the TGI came to 56.8 µM with OVCAR-8 ovarian, 18.8 µM in the test with BT-549 breast, 18 µM in the test with UO-31 renal and 32.8 µM with NCI-H23 lung.
As for `Cc1cc(I)cc(CNCCN(C)C)c1O`, the GI50 is more than 100 µM in the test with OVCAR-5 ovarian; more than 100 µM in the test with MCF7 breast; 30.6 µM in the test with RXF 393 renal; more than 86300 nM in the test on NCI-H522 lung; more than 100 µM in the test with EKVX NSCLC; 50.1 µM in the test on CAKI-1 renal. The GI50 was more than 100 µM with OVCAR-8 ovarian, 37.5 µM with BT-549 breast, 60.5 µM with UO-31 renal and 97.3 µM in the test with NCI-H23 lung. For the same compound, the TGI was more than 100 µM with OVCAR-5 ovarian; more than 100 µM in the test with MCF7 breast; more than 100 µM in the test on RXF 393 renal; more than 100000 nM in the test with NCI-H522 lung; more than 100 µM in the test on EKVX NSCLC; more than 100 µM in the test with CAKI-1 renal. Besides, the TGI in the test on OVCAR-8 ovarian, in the test with BT-549 breast, in the test on UO-31 renal and in the test with NCI-H23 lung was more than 100 µM each time.
